# Results from publication PMC7023430, “4-Aminobenzoic Acid Derivatives: Converting Folate Precursor to Antimicrobial and Cytotoxic Agents” (Biomolecules, 2019).
# Read-outs that look alike come from different tables or passages of the source.
# Legend:
# HepG2 cells = assay: Cytotoxicity, CellTiter 96 assay; type: cell-based, human; conditions: 24 h incubation
# Procedure: HepG2, human hepatocellular carcinoma cells (ATCC HB-8065; passage 5–8) purchased from Health Protection Agency Culture Collections (ECACC, Salisbury, UK) were cultured in Minimum Essentials Eagle Medium supplemented with 10% fetal bovine serum, 1% L-glutamine solution and non-essential amino acid solution (Sigma-Aldrich, St. Louis, MO, USA) in a humidified atmosphere containing 5% CO2 at 37 °C. For subculturing, the cells were harvested after trypsin/EDTA (Sigma-Aldrich, St. Louis, USA) treatment at 37 °C. To evaluate cytotoxicity, the cells treated with the tested substances were used as experimental groups whereas untreated HepG2 cells served as control groups.
# The cells were seeded in a density of 10 000 cells per well in a 96-well plate. The following day the cells were treated with each of the tested substances dissolved in DMSO (maximal incubation concentration of DMSO was 1% v/v). The tested substances were prepared at different incubation concentrations in triplicates according to their solubility. Simultaneously, the controls representing 100% cell viability, 0% cell viability (the cells treated with 10% DMSO), no cell control and vehiculum controls were also involved in triplicates. After 24 h incubation in a humidified atmosphere containing 5% CO2 at 37 °C, the reagent from the kit CellTiter 96 AQueous One Solution Cell Proliferation Assay (CellTiter 96; Promega, Fitchburg, WI, USA) was added. After 2 h incubation at 37 °C absorbance of samples was recorded at 490 nm (TECAN, Infinita M200, Grödig, Austria). A standard toxicological parameter IC50 was calculated by nonlinear regression from a semilogarithmic plot of incubation concentration versus percentage of absorbance relative to untreated controls using GraphPad Prism software (version 6; GraphPad Software, Inc., La Jolla, CA, USA).
# The CellTiter 96 assay used is based on the reduction of tetrazolium dye in living cells to formazan, which is then determined colorimetrically. This reduction is related to availability of NADH or NADPH. The decline in levels of these metabolically important compounds in the cell causes that the production of formazan is reduced. For quantitative comparison of cytotoxicity, the parameter IC50 was used.
# Trichosporon asahii 1188 = assay: Antifungal microdilution broth method, T. asahii; type: cell-based
# Procedure: (§1) The antifungal properties were evaluated against five yeast strains, namely: Candida albicans ATCC 44859, Candida tropicalis 156, Candida krusei […], Candida glabrata 20/I, Trichosporon […] 1188 and three strains of filamentous fungi: Aspergillus fumigatus 231, Lichtheimia corymbifera 272, and Trichophyton interdigitale 445. A microdilution broth method was performed according to EUCAST II, III instructions with slight modifications. Briefly, tested compounds were dissolved in DMSO and diluted in a twofold manner with RPMI-1640 medium with L-glutamine, supplemented with 2% glucose (w/v) and buffered to pH 7.0 with 3 morpholinopropane-1-sulfonic acid (all components were purchased from Sigma-Aldrich, USA). […] Positive controls consisted of test microbe solely, while negative controls consisted of medium and DMSO. Internal quality control was included too. Visual inspection was used for MIC endpoints evaluation. The experiments were conducted in duplicates. For the results to be valid, the difference in MIC determined from two parallel measurements must not be greater than one step on the dilution scale. PABA and triazole antimycotic drug fluconazole were involved as the reference compounds.
# [1] = test system: Lichtheimia corymbifera 272; assay: Antifungal microdilution broth method, L. corymbifera; type: cell-based
# Procedure: as §1
# Candida glabrata 20/I = assay: Antifungal microdilution broth method, C. glabrata; type: cell-based; conditions: Nakaseomyces glabratus
# Procedure: as §1
# Candida krusei E28 = assay: Antifungal microdilution broth method, C. krusei; type: cell-based; conditions: Pichia kudriavzevii
# Procedure: as §1
# [2] = test system: Trichophyton interdigitale 445; assay: Antifungal microdilution broth method, T. interdigitale; type: cell-based
# Procedure: as §1
# Candida tropicalis 156 = assay: Antifungal microdilution broth method, C. tropicalis; type: cell-based
# Procedure: as §1
# [3] = test system: Candida albicans ATCC 44859; assay: Antifungal microdilution broth method, C. albicans; type: cell-based
# Procedure: as §1
# [4] = test system: Aspergillus fumigatus 231; assay: Antifungal microdilution broth method, A. fumigatus; type: cell-based
# Procedure: as §1
# [5] = test system: Mycobacterium avium 330/88; assay: Antimycobacterial micromethod in Šula's medium, M. avium; type: cell-based
# [6] = test system: Mycobacterium kansasii 235/80; assay: Antimycobacterial micromethod in Šula's medium, M. kansasii 235/80; type: cell-based
# [7] = test system: Mycobacterium tuberculosis H37Rv (331/88); assay: Antimycobacterial micromethod in Šula's medium, M. tuberculosis; type: cell-based
# [8] = test system: M. kansasii 6509/96 (clinical isolate); assay: Antimycobacterial micromethod in Šula's medium, M. kansasii 6509/96; type: cell-based; conditions: Mycobacterium kansasii
# [9] = test system: Escherichia coli ATCC 25922, CCM 3954; assay: Antibacterial microdilution broth method, E. coli; type: cell-based
# [10] = test system: Pseudomonas aeruginosa ATCC 27853, CCM 3955; assay: Antibacterial microdilution broth method, P. aeruginosa; type: cell-based; conditions: P. aeruginosa
# [11] = test system: methicillin-resistant Staphylococcus aureus ATCC 43300, CCM 4750 (MRSA); assay: Antibacterial microdilution broth method, MRSA; type: cell-based
# [12] = test system: Klebsiella pneumoniae D 11750/08; assay: Antibacterial microdilution broth method, K. pneumoniae; conditions: K. pneumoniae D 11750/08
# [13] = test system: Staphylococcus epidermidis H 6966/08; assay: Antibacterial microdilution broth method, S. epidermidis; type: cell-based; conditions: S. epidermidis
# [14] = test system: ESBL-positive Klebsiella pneumoniae J 14368/08; conditions: ESBL-positive K. pneumoniae
# [15] = test system: Enterococcus faecalis ATCC 29212, CCM 4224; assay: Antibacterial microdilution broth method, E. faecalis; type: cell-based
# [16] = 24 h incubation, read-out: MIC EC 24 h
# [17] = 48 h incubation, read-out: MIC EC 48 h
# [18] = 24 h incubation, read-out: MIC PA 24 h
# [19] = 48 h incubation, read-out: MIC PA 48 h
compound,measurement,setting,value
"N.N.[Cl][Pt][Cl] [Cisplatin, cisplatin, reference compound]",IC50,HepG2 cells,21.3 µM
"OC(Cn1cncn1)(Cn1cncn1)c1ccc(F)cc1F [FLU, fluconazole, reference compound]",MIC50,"Trichosporon asahii 1188; 24 h, fluconazole values mean MIC50, read-out: MIC50 TA 24 h",250 µM
same,MIC50,"Trichosporon asahii 1188; 48 h, fluconazole values mean MIC50, read-out: MIC50 TA 48 h",500 µM
same,MIC50,"[1]; 24 h, fluconazole values mean MIC50, read-out: MIC50 LC 24 h",> 500 µM
same,MIC50,"[1]; 48 h, fluconazole values mean MIC50, read-out: MIC50 LC 48 h",> 500 µM
same,MIC50,"Candida glabrata 20/I; 24 h, fluconazole values mean MIC50, read-out: MIC50 CG 24 h",31.2 µM
same,MIC50,"Candida glabrata 20/I; 48 h, fluconazole values mean MIC50, read-out: MIC50 CG 48 h",500 µM
same,MIC50,"Candida krusei E28; 24 h, fluconazole values mean MIC50, read-out: MIC50 CK 24 h",125 µM
same,MIC50,"Candida krusei E28; 48 h, fluconazole values mean MIC50, read-out: MIC50 CK 48 h",250 µM
same,MIC50,"[2]; 72 h, fluconazole values mean MIC50, read-out: MIC50 TI 72 h",7.81 µM
same,MIC50,"[2]; 120 h, fluconazole values mean MIC50, read-out: MIC50 TI 120 h",125 µM
same,MIC50,"Candida tropicalis 156; 24 h, fluconazole values mean MIC50, read-out: MIC50 CT 24 h",> 500 µM
same,MIC50,"Candida tropicalis 156; 48 h, fluconazole values mean MIC50, read-out: MIC50 CT 48 h",> 500 µM
same,MIC50,"[3]; ATCC44859, 24 h, fluconazole values mean MIC50, read-out: MIC50 CA 24 h",0.24 µM
same,MIC50,"[3]; ATCC44859, 48 h, fluconazole values mean MIC50, read-out: MIC50 CA 48 h",0.24 µM
same,MIC50,"[4]; 24 h, fluconazole values mean MIC50, read-out: MIC50 AF 24 h",> 500 µM
same,MIC50,"[4]; 48 h, fluconazole values mean MIC50, read-out: MIC50 AF 48 h",> 500 µM
"NNC(=O)c1ccncc1 [INH, isoniazid, reference compound]",MIC,"[5]; 330/88, 336 h, 14 days incubation at 37 °C, read-out: MIC M. avium 330/88 14 d",> 250 µM
same,MIC,"[5]; 330/88, 504 h, 21 days incubation at 37 °C, read-out: MIC M. avium 330/88 21 d",> 250 µM
same,MIC,"[6]; 235/80, 168 h, 7 days incubation at 37 °C, read-out: MIC M. kansasii 235/80 7 d",> 250 µM
same,MIC,"[6]; 235/80, 336 h, 14 days incubation at 37 °C, read-out: MIC M. kansasii 235/80 14 d",> 250 µM
same,MIC,"[6]; 235/80, 504 h, 21 days incubation at 37 °C, read-out: MIC M. kansasii 235/80 21 d",> 250 µM
same,MIC,"[7]; 336 h, 14 days incubation at 37 °C, read-out: MIC Mtb. 331/88 14 d",0.5 µM
same,MIC,"[7]; 504 h, 21 days incubation at 37 °C, read-out: MIC Mtb. 331/88 21 d",1 µM
same,MIC,"[8]; 168 h, 7 days incubation at 37 °C, read-out: MIC M. kansasii 6509/96 7 d",8 µM
same,MIC,"[8]; 336 h, 14 days incubation at 37 °C, read-out: MIC M. kansasii 6509/96 14 d",8 µM
same,MIC,"[8]; 504 h, 21 days incubation at 37 °C, read-out: MIC M. kansasii 6509/96 21 d",8 µM
"NC[C@@H]1O[C@H](O[C@H]2[C@@H](O)[C@H](O[C@@H]3[C@@H](O)[C@H](N)C[C@H](N)[C@H]3O[C@H]3O[C@H](CN)[C@@H](O)[C@H](O)[C@H]3N)O[C@@H]2CO)[C@H](N)[C@@H](O)[C@@H]1O [NEO, neomycin, reference compound]",MIC,[9]; [16],3.9 µM
same,MIC,[9]; [17],3.9 µM
same,MIC,[10]; [18],7.81 µM
same,MIC,[10]; [19],15.62 µM
bacitracin [reference compound],MIC,"[11]; 24 h incubation, read-out: MIC MRSA 24 h",15.62 µM
same,MIC,"[11]; 48 h incubation, read-out: MIC MRSA 48 h",15.62 µM
same,MIC,[9]; [16],>500 µM
same,MIC,[9]; [17],>500 µM
same,MIC KP 24 h,[12]; 24 h incubation,>500 µM
same,MIC KP 48 h,[12]; 48 h incubation,>500 µM
same,MIC,"[13]; 24 h incubation, read-out: MIC SE 24 h",15.62 µM
same,MIC,"[13]; 48 h incubation, read-out: MIC SE 48 h",31.25 µM
same,MIC,[10]; [18],>500 µM
same,MIC,[10]; [19],>500 µM
same,MIC KP-E 24 h,[14]; 24 h incubation,>500 µM
same,MIC KP-E 48 h,[14]; 48 h incubation,>500 µM
same,MIC,"[15]; 24 h incubation, read-out: MIC EF 24 h",15.62 µM
same,MIC,"[15]; 48 h incubation, read-out: MIC EF 48 h",62.5 µM
